# In patent publication EP1186305A1 (Schering Aktiengesellschaft, priority 2000, dated 2002):
# Assays:
# [1] = Phantom studies with conventional mammography (X-ray absorption of contrast media in agar discs); conditions: 10 mm agar discs in 5 cm water phantom, film mammography
# Method: The agar pieces were prepared in cell-culture well-plates having a diameter of 24 mm and a final height of 10 mm. After formation of solid agar the agar discs were placed in a water phantom containing 5 cm height of water. Additionally a control agar disc prepared with physiological saline instead of CM volume was added. The whole phantom was imaged with a commercial available mammograph at various energies of 30 kV, 25 and 20 kV and 140 mAs. After exposure the mammographic films were developed according to standard quality guidelines. Later the films were digitized and signal intensities of the agar discs and surrounding water background were measured with a imaging analyzing software.
# [2] = test system: male Sprague-Dawley mice; test: Acute tolerance, approximate LD50 after single intravenous injection
# Source text: (§2) The behavior of the animals and the lethality was monitored for 7 days post injection.
# [3] = test system: erythrocyte morphology; test: Influence on erythrocyte morphology in rat blood (damage index); assay type: cell-based; conditions: for Erythrocyte morphology Damage index 2 h: six parts blood to one part test substance, 2 h incubation
# Method: Six parts by volume was mixed with one part by volume of each test substance. The mixtures were examined with and optical microscope immediately, 1 hour and 2 hours after incubation in terms of a damage index of blood cells.
# [4] = Aqueous solubility; assay type: physicochemical
# [5] = Pharmacokinetic profile after intravenous administration of 3H-labelled compound; assay type: in vivo, male Sprague-Dawley rats; conditions: rats
# Method: The pharmacokinetic profile of example 4 was examined after intravenous administration of 3H-labelled example 4 to male Sprague-Dawley rats. For this purpose example 4 was labeled with tritium of a chemical concentration of 300 mg / mL and a radioactive concentration of 2.75 MBq/mL. After intravenous injection in the right jugular vein via a catheter at a dose of 600 mg EXAMPLE 4/kg blood samples of 400 µl were collected in plastic tubes at 0.083, 0.25, 0.5, 1, 2, 4, 6, 8 and 24 hours after administration. Plasma samples were obtained after blood sample centrifugation at 250 g for 10 min. After injection, the rats were transferred in metabolic cages allowing the collection of urine and faeces at different intervals. Aliquots of 100 µl of samples with blood or urine were added to 10 ml of scintillation cocktail and the radioactivity was measured by means of a Tricor-2500 TR automatic scintillation spectrometer. Faeces samples were freeze-dried for two days. They were milled and aliquots of 50 or 100 mg were taken, moistened with 1 mL water and digested with Soluene-350® and 1 mL of isopropyl alcohol at 50 °C for 24 hours. Digested faeces samples were bleached and radioactivity was measured as mentioned above. Plasma levels of example 4 and mean cumulative urinary and faecal excretion data were fitted to a two-compartment model. Curve fit and evaluation of kinetic parameters was performed on the TOP-Fit v 2.0β program.
# [6] = Viscosity of contrast media formulations (capillary viscosimeter); assay type: physicochemical; conditions: formulations 0.788 (monomer) or 0.394 (dimer) mol/L
# Method: (§1) For this purpose contrast media formulation with a molar concentration of […] for monomeric compounds and of […] for dimeric compounds, equivalent to a iodine concentration of 300 mgI/mL or 189 mgBr/mL were prepared at neutral pH. After heat sterilization under standard conditions for 20 min at 120°C changes in pH and free bromine and iodine was measured. The osmolality was measured at 37°C using a Knauer vapor pressure osmometer. Viscosity of contrast media formulations was determined using a Schott capillary viscosimeter which was standardized with water.
# [7] = Osmolality of contrast media formulations (vapor pressure osmometer); assay type: physicochemical
# Method: as §1
# [8] = in vivo; conditions: male, mouse, iv
# Source text: as §2
# [9] = i.v. 600 mg/kg, two-compartment model
SMILES,increase of the tolerability with respect to the iodinated and brominated reference compounds [2],influence on erythrocyte morphology compared to iodinated reference substances [3],Erythrocyte morphology Damage index 2 h [3],Aqueous solubility [4] [mgBr/mL],Viscosity (37°C) [6] [mPa·s],"Osmolality a) monomer, 0.788 mol/L, 37°C [7] [mOsm/kg water]","Osmolality b) dimer, 0.394 mol/L, 37° C [7] [mOsm/kg water]",other results
"CN(CC(O)CO)C(=O)c1c(Br)c(NC(=O)CO)c(Br)c(C(=O)NCC(O)CO)c1Br (centres unmarked) [Example 4, 2,4,6-tribromo-5-hydroxyacetylamino-N,N'-bis-(2,3-dihydroxypropyl)-N-methylisophthalamide]",13 - 23%,substantially less influence on erythrocyte morphology than the iodinated reference substances,0.82,>400,3.5,818,–,"detectable down to concentrations [1]: 1.31 mmol/L; detectable down to concentrations, moles equivalent to mg I/mL of Iohexol [1]: 0.5 mg I/mL; in faeces measured ([5]; 24 h p.i.): 5.1 % I.D.; in the urine detected ([5]; 24 h p.i.): 63.7 % I.D.; metabolisation (bile fluid, HPLC-analysis) ([5]; bile collected via catheter in the bile duct): no metabolisation; cumulative faecal excretion ([5]; i.v. 600 mg/kg, at 24 h): 5.39 % of injected dose; cumulative urinary excretion ([5]; i.v. 600 mg/kg, at 24 h p.i.): 62.8 % of injected dose; distribution volume Vc [5, 9]: 0.26 L/kg; t½ α [5, 9]: 11.4 min; t½ β [5, 9]: 31.2 min"
"NC(=O)c1c(Br)c(C(=O)NC(CO)C(O)CO)c(Br)c(N(CCO)C(=O)CO)c1Br (centres unmarked) [Example 14, 2,4,6-tribromo-5-[N-(2-hydroxyethyl)hydroxyacetylamino]-N-(1-hydroxymethyl-2,3-dihydroxypropyl)isophthalamide]",13 - 23%,substantially less influence on erythrocyte morphology than the iodinated reference substances,0.88,>400,3.4,500,–,–
"NC(=O)c1c(Br)c(C(=O)NCC(O)CO)c(Br)c(N(CC(O)CO)C(=O)CC(=O)N(CC(O)CO)c2c(Br)c(C(N)=O)c(Br)c(C(=O)NCC(O)CO)c2Br)c1Br (centres unmarked) [Example 25, N,N'-bis-[2,4,6-tribromo-5-carbamoyl-3-[N-(2,3-dihydroxypropyl)carbamoyl]phenyl]-N,N'-bis-(2,3-dihydroxypropyl)-malonamide]",13 - 23%,substantially less influence on erythrocyte morphology than the iodinated reference substances,0.45,400,5.5,–,320,–
"CN(C(=O)CC(=O)N(C)c1c(Br)c(C(=O)NC(CO)C(O)CO)c(Br)c(C(=O)NC(CO)C(O)CO)c1Br)c1c(Br)c(C(=O)NC(CO)C(O)CO)c(Br)c(C(=O)NC(CO)C(O)CO)c1Br (centres unmarked) [Example 26, N,N'-bis-[2,4,6-tribromo-3,5-bis-[N-(1-hydroxymethyl-2,3-dihydroxypropyl)carbamoyl]phenyl]-N,N'-dimethylmalonamide]",13 - 23%,substantially less influence on erythrocyte morphology than the iodinated reference substances,0.51,400,6.3,–,370,–
"CC(=O)N(CC(O)CO)c1c(I)c(C(=O)NCC(O)CO)c(I)c(C(=O)NCC(O)CO)c1I (centres unmarked) [Iohexol, 5-[N-(2,3-dihydroxypropyl)acetylamino]-2,4,6-triiodo-N,N'-bis-(2,3-dihydroxypropyl)isoph-thalamide, reference compound]",–,–,1.31,–,–,–,–,–
"CN(C(=O)CC(=O)N(C)c1c(I)c(C(=O)NC(CO)C(O)CO)c(I)c(C(=O)NC(CO)C(O)CO)c1I)c1c(I)c(C(=O)NC(CO)C(O)CO)c(I)c(C(=O)NC(CO)C(O)CO)c1I (centres unmarked) [Iotrolan, N,N'-bis-[2,4,6-triiodo-3,5-bis-[N-(1-hydroxymethyl-2,3-dihydroxypropyl)carbamoyl]phenyl]-N,N'-dimethylmalonamide, reference compound]",–,–,0.69,>400,8.5,–,320,LD50 at 7 days ([8]; Sprague-Dawley): 63000 µmol/kg
CC(=O)N(CC(O)CO)c1c(Br)c(C(=O)NCC(O)CO)c(Br)c(C(=O)NCC(O)CO)c1Br (centres unmarked) [reference compound],–,–,–,> 300,4.6,908,–,LD50 at 7 days [8]: ~59000 µmol/kg
